According to patent US6825230B2, “Spiro and dispiro 1,2,4-trixolane antimalarials” (Medicines for Malaria Venture MMV, priority 2002, dated 2004):
Like-named read-outs stand apart in the source and are kept apart here.

Legend:
[1] = tested on: ANKA strain of P. berghei; test: Single dose STI in vivo screen in infected mice; set-up: species or system Plasmodium berghei; conditions: for Survival (days) 10 mg/kg SSV po: single 10 mg/kg po in SSV, untreated 6-7 days
P. berghei ANKA strain [2] = test: Onset of action and recrudescence experiment, single 100 mg/kg po; assay type: in vivo, Plasmodium berghei; conditions: single 100 mg/kg po (SSV) on day +3 post-infection; recrudescence = >5% parasitemia; followed up to 60 days; groups of five
Experimental: The onset of drug action was determined after a single fixed dose of 100 mg/kg (SSV vehicle) po to groups of five animals on day +3 post-infection (day 0).
(§1) Moro NMRI male mice (Fu Albino specific pathogen free) weighing 18±2 g were infected intravenously (i.v.) with 2×10^7 P. berghei ANKA strain-infected erythrocytes from donor mice on day 0 of the experiment. From donor mice with circa 30% parasitemia, heparinized blood was taken and diluted in physiological saline to 10^8 parasitized erythrocytes per ml. An aliquot (0.2 ml) of this suspension was injected i.v. into experimental and control groups of mice. […] Throughout the experiments, mice were kept in groups of three or five animals in Makrolon type II cages in an air-conditioned animal room at 22 to 23° C.

[3] = tested on: Schistosoma mansoni adult worms (49-day-old); test: Effect on adult schistosomes (49-day-old) in infected mice; assay type: in vivo; conditions: single 400 mg/kg per os; for % reduction of adult worms growth at day 49 after per os application of 400 mg/kg, TWR (%): 49-day-old adults, total worm reduction rate; for Adult worms day 49, per os 400 mg/kg, DEAD WORM (%): percentage of dead worm in the liver
Experimental: Mice were infected with 100 Schistosoma mansoni cercariae on day 49 post-treatment. Each group was treated per os with OZ compounds at single doses of 200, 400, and 600 mg/kg. Untreated mice served as the control. All groups were killed 4 weeks after treatment and the liver and intestine were removed and separated. The liver and intestine were compressed and alive male and female worms could be seen and counted.

[4] = tested on: ANKA strain of Plasmodium berghei; test: Single dose ED50/ED90/ED99 determination in infected mice; assay type: in vivo; conditions: for ED50: Plasmodium berghei
How it was run: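 Moro SPF or NMRI mice (three per group) infected with P. berghei ANKA were dosed once on day 1 post-infection in SSV (0.5% CMC, 0.5% benzyl alcohol, 0.4% Tween 80, 0.9% NaCl). Parasitemia reduction was scored on day 3; ED values (mg/kg) came from nonlinear fitting.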

[5] = Pharmacokinetics in rats (IV and oral dosing); conditions: in vivo, rat
Excerpt: (§2) Artesunate is listed as a reference compound.

[6] = Pharmacokinetics in dogs (IV and oral dosing); conditions: in vivo, dog; for bioavailability: some values marked (V), not defined
Excerpt: as §2

P. berghei ANKA strain [7] = test: Divided 3x10 mg/kg vs single 1x30 mg/kg po dose in infected mice; assay type: in vivo, Plasmodium berghei; conditions: for Survival (days) 3 × 10 mg/kg p.o. SSV / Activity (%) 3 × 10 mg/kg p.o. SSV: 10 mg/kg po on days 1, 2, 3 post-infection; for Activity (%) 3 × 10 mg/kg p.o. SSV / Activity (%) 1 × 30 mg/kg p.o. SSV: parasitemia reduction on day 4; for Survival (days) 1 × 30 mg/kg p.o. SSV / Activity (%) 1 × 30 mg/kg p.o. SSV: single 30 mg/kg po on day 1 post-infection; for Cures 1 × 30 mg/kg p.o. SSV: single 30 mg/kg po, cure = survival to day 30 post-infection
Experimental: as §1
They were administered per os (p.o.) in a total volume of 0.01 ml per gram of mouse. The activity of the compound was determined by a variety of methods outlined in subsequent sections. Survival time was also recorded, and survival to day 30 post-infection was considered to be a cure.
The first experiment conducted consisted of administration of a divided 3×10 mg/kg p.o. dose administered on days 1, 2, and 3 post-infection vs. a single 1×30 mg/kg po dose administered on day 1 post-infection. On day 4 post-infection, blood smears of all animals were prepared and stained with Giemsa. […] Compounds were administered orally in the SSV vehicle.

P. berghei ANKA strain [8] = test: Divided 3x3 mg/kg and 3x1 mg/kg po doses in infected mice; assay type: in vivo, Plasmodium berghei
How it was run: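 Male NMRI mice were infected i.v. with 2×10^7 P. berghei-parasitized erythrocytes on day 0, then dosed orally in SSV vehicle on days 1, 2 and 3 post-infection.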

P. berghei ANKA strain [9] = test: Prophylactic activity, single 100 mg/kg po at various times before infection; assay type: in vivo, Plasmodium berghei; conditions: for Prophylactic Activity (%) 24 h: single 100 mg/kg po 24 h before infection; for Prophylactic Activity (%) 48 h: single 100 mg/kg po 48 h before infection; for Prophylactic Activity (%) 0 h: single 100 mg/kg po at 0 h
Experimental: as §1
Prophylactic activities of the compounds were compared after administering po single dose of 100 mg/kg to different groups of five animals at various times before infection. All groups including an untreated control group, were then infected at the same time. Parasitemia was determined for each animal on day 3 post-infection, and percent of reduction of the level of parasitemia compared to levels for animals given no drug is determined.

[10] = tested on: chloroquine-resistant K1 strain of P. falciparum; test: In vitro antimalarial semiautomated microdilution assay ([3H]-hypoxanthine incorporation), K1 strain; assay type: cell-based, Plasmodium falciparum; conditions: Plasmodium falciparum, K1, 72 h, read-out: IC50 (ng/ml) K1, chloroquine-resistant K1 strain, 72 h incubation
How it was run: (§3)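 IC50 comes from Logit regression of [3H]-hypoxanthine incorporation data. Intraerythrocytic P. falciparum taken from asynchronous stock cultures is exposed to OZ compounds in a semiautomated microdilution format.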

[11] = tested on: chloroquine-sensitive NF54 strain of P. falciparum; test: In vitro antimalarial semiautomated microdilution assay ([3H]-hypoxanthine incorporation), NF54 strain; assay type: cell-based, Plasmodium falciparum; conditions: Plasmodium falciparum, NF54, 72 h, read-out: IC50 (ng/ml) NF54, chloroquine-sensitive NF54 strain, 72 h incubation
How it was run: as §3

[12] = single dose po in SSV on day 1 post-infection, parasitemia day 3, nonlinear fitting
[13] = oral 10 mg/kg, read-out: Dog Oral Bioavailability 10 mg/kg
[14] = oral 25 mg/kg, read-out: Dog Oral Bioavailability 25 mg/kg
[15] = 3 × 1 mg/kg p.o. SSV on days 1, 2, 3 post-infection
[16] = 3 × 3 mg/kg p.o. SSV on days 1, 2, 3 post-infection
[17] = 3 × 3 mg/kg p.o. SSV on days 1, 2, 3 post-infection, percent reduction of parasitemia vs control on day 4
[18] = parasitemia reduction on day 3 post-infection

Row | SMILES | Survival (days) 10 mg/kg SSV po [1] | Time of Recrudescence (P. berghei ANKA strain [2]) | % reduction of adult worms growth at day 49 after per os application of 400 mg/kg, TWR (%) [3] | Adult worms day 49, per os 400 mg/kg, DEAD WORM (%) [3] | ED99 [4, 12] | half-life ([5]; IV 10 mg/kg) | half-life ([5]; oral 25 mg/kg) | half-life ([6]; IV 10 mg/kg) | half-life ([6]; oral 10 mg/kg) | bioavailability [6, 13] | bioavailability [6, 14] | Survival (days) 3 × 10 mg/kg p.o. SSV (P. berghei ANKA strain [7]) | Activity (%) 3 × 10 mg/kg p.o. SSV (P. berghei ANKA strain [7]) | Survival (days) 1 × 30 mg/kg p.o. SSV (P. berghei ANKA strain [7]) | Activity (%) 1 × 30 mg/kg p.o. SSV (P. berghei ANKA strain [7]) | Cures 1 × 30 mg/kg p.o. SSV (P. berghei ANKA strain [7]) | Survival (P. berghei ANKA strain [8]; [15]) | Survival (P. berghei ANKA strain [8]; [16]) | Activity (%) (P. berghei ANKA strain [8]; [17]) | Prophylactic Activity (%) 24 h (P. berghei ANKA strain [9]; [18]) | also measured
1 | CC(C)(N)CNC(=O)C[C@H]1CC[C@]2(CC1)OO[C@]1(O2)C2CC3CC(C2)CC1C3 [OZ277] | 9.3 days | 13.0 days | 0/0% | 0/0% | 4.4 mg/kg | 1.29 h | 1.51 h | 1.58 h | 2.47 h | 87.9% | 96.1% | 27.6 days | 100% | 10.4 days | 99.92% | 0/5 | 9.4 days | 14 days | 100% | 25% | Survival (days) 3 mg/kg SSV po ([1]; single 3 mg/kg po in SSV): 9.6 days; ED50 ([4]; single dose po in SSV on day 1 post-infection, parasitemia day 3, nonlinear fitting, read-out: ED50): 0.78 mg/kg; ED90 ([4]; po): 2.0 mg/kg; bioavailability ([5]; po, 10 mg/kg): 36.9%; bioavailability ([5]; po, 25 mg/kg): 44.1%; Activity (%) (P. berghei ANKA strain [8]; po, 1 mg/kg, 96 h): 83%; Cures (P. berghei ANKA strain [8]; po, 3 mg/kg, 720 h): 0\5; Prophylactic Activity (%) 72 h (P. berghei ANKA strain [9]; po, 100 mg/kg): 9%; Prophylactic Activity (%) 48 h (P. berghei ANKA strain [9]; [18]): 7%; Prophylactic Activity (%) 0 h (P. berghei ANKA strain [9]; [18]): 100%
2 | Cc1ccc(S(=O)(=O)O)cc1.O=C(C[C@H]1CC[C@]2(CC1)OO[C@]1(O2)C2CC3CC(C2)CC1C3)N1CCNCC1 [OZ279] | 9.3 days | 15.0 days | 0% | 12% | 3.9 mg/kg | 1.68 h | 2.78 h | 2.96 h | 3.26 h | 32.8% | 55.7% | 25.4 days | 100% | 14.8 days | 99.95% | 0/5 | 8.8 days | 14.8 days | 100% | 97% | IC50 [10]: 0.21 ng/mL; IC50 [11]: 0.24 ng/mL; Activity (%) 3 mg/kg SSV po ([1]; single 3 mg/kg po in SSV, percent reduction in parasitemia on day 3): 99.42%; Activity (%) 10 mg/kg SSV po ([1]; single 10 mg/kg po in standard suspending vehicle (SSV) on day 1 post-infection, percent reduction in parasitemia on day 3): 99.98%; ED50 ([4]; po, single dose po in SSV on day 1 post-infection, parasitemia day 3, nonlinear fitting): 0.63 mg/kg; ED90 [4, 12]: 1.8 mg/kg; bioavailability ([5]; oral 10 mg/kg, read-out: Rat Oral Bioavailability 10 mg/kg): 37.2%; bioavailability ([5]; oral 25 mg/kg, read-out: Rat Oral Bioavailability 25 mg/kg): 71.1%; Activity (%) (P. berghei ANKA strain [8]; 3 × 1 mg/kg p.o. SSV on days 1, 2, 3 post-infection, percent reduction of parasitemia vs control on day 4): 83%; Prophylactic Activity (%) 48 h (P. berghei ANKA strain [9]; [18]): 27%; Prophylactic Activity (%) 72 h (P. berghei ANKA strain [9]; single 100 mg/kg po 72 h before infection, parasitemia reduction on day 3 post-infection): 14%; Prophylactic Activity (%) 0 h (P. berghei ANKA strain [9]; [18]): 100%
